Assay results: article PMC9866191, “Novel 9-Benzylaminoacridine Derivatives as Dual Inhibitors of Phosphodiesterase 5 and Topoisomerase II for the Treatment of Colon Cancer” (Molecules, 2023)

Assays:
Assay in all cases: NCI-60 one-dose screen
Format in all cases: cell-based
CCRF-CEM = conditions: Homo sapiens, Leukemia panel, single dose 10^−5 M, read-out: Growth inhibition %
A498 = conditions: Homo sapiens; A498, Renal Cancer panel; single dose 10^−5 M; read-out: Growth inhibition %
Method: (§1) The newly synthesized compounds were screened for their in vitro anticancer activity at the Developmental Therapeutic Program (DTP) of the National Cancer Institute (NCI). The screening involved a panel of 60 human tumor cell lines consisting of 9 tissue types to screen for potential anti-cancer agents. The primary screening of submitted compounds was performed by testing a single dose (10^−5 M) in the full NCI-60 panel. The detailed % inhibition by the tested compounds against the 60 cell lines is shown in Tables S1–S3 in the Supporting Information.

BT-549 = conditions: Homo sapiens; BT-549, Breast Cancer panel; single dose 10^−5 M; read-out: Growth inhibition %
Method: as §1

COLO 205 = conditions: Homo sapiens; COLO 205, Colon Cancer panel; single dose 10^−5 M; read-out: Growth inhibition %
Method: as §1

DU-145 = conditions: Homo sapiens; DU-145, Prostate Cancer panel; single dose 10^−5 M; read-out: Growth inhibition %
Method: as §1

EKVX = conditions: Homo sapiens, Non-small cell lung panel, single dose 10^−5 M, read-out: Growth inhibition %
Method: as §1

HCC-2998 = conditions: Homo sapiens; HCC-2998, Colon Cancer panel; single dose 10^−5 M; read-out: Growth inhibition %
Method: as §1

HCT-15 = conditions: Homo sapiens; HCT-15, Colon Cancer panel; single dose 10^−5 M; read-out: Growth inhibition %
Method: as §1

HT29 = conditions: Homo sapiens, HT-29; HT29, Colon Cancer panel; single dose 10^−5 M; read-out: Growth inhibition %
Method: as §1

K-562 = conditions: Homo sapiens, K562; K-562, Leukemia panel; single dose 10^−5 M; read-out: Growth inhibition %
Method: as §1

KM12 = conditions: Homo sapiens; KM12, Colon Cancer panel; single dose 10^−5 M; read-out: Growth inhibition %
Method: as §1

M14 = conditions: Homo sapiens; M14, Melanoma panel; single dose 10^−5 M; read-out: Growth inhibition %
Method: as §1

MALME-3M = conditions: Homo sapiens, Melanoma panel, single dose 10^−5 M, read-out: Growth inhibition %
Method: as §1

NCI-H226 = conditions: Homo sapiens; NCI-H226, Non-small cell lung panel; single dose 10^−5 M; read-out: Growth inhibition %
Method: as §1

OVCAR-5 = conditions: Homo sapiens; OVCAR-5, Ovarian Cancer panel; single dose 10^−5 M; read-out: Growth inhibition %
Method: as §1

OVCAR-8 = conditions: Homo sapiens; OVCAR-8, Ovarian Cancer panel; single dose 10^−5 M; read-out: Growth inhibition %
Method: as §1

PC-3 = conditions: Homo sapiens; PC-3, Prostate Cancer panel; single dose 10^−5 M; read-out: Growth inhibition %
Method: as §1

RPMI-8226 = conditions: Homo sapiens; RPMI-8226, Leukemia panel; single dose 10^−5 M; read-out: Growth inhibition %
Method: as §1

RXF 393 = conditions: Homo sapiens; RXF 393, Renal Cancer panel; single dose 10^−5 M; read-out: Growth inhibition %
Method: as §1

SF-295 = conditions: Homo sapiens; SF-295, CNS Cancer panel; single dose 10^−5 M; read-out: Growth inhibition %
Method: as §1

SF-539 = conditions: Homo sapiens; SF-539, CNS Cancer panel; single dose 10^−5 M; read-out: Growth inhibition %
Method: as §1

SK-MEL-2 = conditions: Homo sapiens; SK-MEL-2, Melanoma panel; single dose 10^−5 M; read-out: Growth inhibition %
Method: as §1

SK-MEL-5 = conditions: Homo sapiens; SK-MEL-5, Melanoma panel; single dose 10^−5 M; read-out: Growth inhibition %
Method: as §1

SK-OV-3 = conditions: Homo sapiens; SK-OV-3, Ovarian Cancer panel; single dose 10^−5 M; read-out: Growth inhibition %
Method: as §1

SNB-19 = conditions: Homo sapiens; SNB-19, CNS Cancer panel; single dose 10^−5 M; read-out: Growth inhibition %
Method: as §1

SR = conditions: Homo sapiens, Leukemia panel, single dose 10^−5 M, read-out: Growth inhibition %
Method: as §1

SW-620 = conditions: Homo sapiens; SW-620, Colon Cancer panel; single dose 10^−5 M; read-out: Growth inhibition %
Method: as §1

T-47D = conditions: Homo sapiens, T47D, Breast Cancer panel, single dose 10^−5 M, read-out: Growth inhibition %
Method: as §1

TK-10 = conditions: Homo sapiens; TK-10, Renal Cancer panel; single dose 10^−5 M; read-out: Growth inhibition %
Method: as §1

U251 = conditions: Homo sapiens, U-251; U251, CNS Cancer panel; single dose 10^−5 M; read-out: Growth inhibition %
Method: as §1

UACC-257 = conditions: Homo sapiens; UACC-257, Melanoma panel; single dose 10^−5 M; read-out: Growth inhibition %
Method: as §1

UACC-62 = conditions: Homo sapiens; UACC-62, Melanoma panel; single dose 10^−5 M; read-out: Growth inhibition %
Method: as §1

Row | Compound | inhibition at 10 µM (CCRF-CEM) [%] | inhibition at 10 µM (A498) [%] | inhibition at 10 µM (BT-549) [%] | inhibition at 10 µM (COLO 205) [%] | inhibition at 10 µM (DU-145) [%] | inhibition at 10 µM (EKVX) [%] | inhibition at 10 µM (HCC-2998) [%] | inhibition at 10 µM (HCT-15) [%] | inhibition at 10 µM (HT29) [%] | inhibition at 10 µM (K-562) [%] | inhibition at 10 µM (KM12) [%] | inhibition at 10 µM (M14) [%] | inhibition at 10 µM (MALME-3M) [%] | inhibition at 10 µM (NCI-H226) [%] | inhibition at 10 µM (OVCAR-5) [%] | inhibition at 10 µM (OVCAR-8) [%] | inhibition at 10 µM (PC-3) [%] | inhibition at 10 µM (RPMI-8226) [%] | inhibition at 10 µM (RXF 393) [%] | inhibition at 10 µM (SF-295) [%] | also measured
1 | COc1cccc(CNc2c3ccccc3nc3ccccc23)c1 [Compound 6, Acridin-9-yl-(3-methoxybenzyl)-amine] | 69.8 | 96.3 | 31.3 | 90.4 | 46.7 | 48.2 | 60.7 | 75.6 | 81.3 | 93.4 | 64.1 | 64.8 | 56 | 51.9 | 54.1 | 68.1 | 61.1 | 83.3 | 86.2 | 64 | inhibition at 10 µM (SF-539): 80.6%; inhibition at 10 µM (SK-MEL-2): 32.1%; inhibition at 10 µM (SK-MEL-5): 42.4%; inhibition at 10 µM (SK-OV-3): 45.3%; inhibition at 10 µM (SNB-19): 64%; inhibition at 10 µM (SR): 91.6%; inhibition at 10 µM (SW-620): 74.5%; inhibition at 10 µM (T-47D): 54.1%; inhibition at 10 µM (TK-10): 48.3%; inhibition at 10 µM (U251): 61.3%; inhibition at 10 µM (UACC-257): 45%; inhibition at 10 µM (UACC-62): 36.5%
2 | COc1ccc(CNc2c3ccccc3nc3ccccc23)cc1 [Compound 7, Acridin-9-yl-(4-methoxybenzyl)-amine] | 61 | 90 | 19.9 | 88.4 | 52 | 50.3 | 61.4 | 78 | 80.7 | 93 | 66.8 | 62.9 | 60 | 48.6 | 53.6 | 72.3 | 66 | 84.2 | 72.4 | 60.9 | inhibition at 10 µM (SF-539): 72.5%; inhibition at 10 µM (SK-MEL-2): 39.9%; inhibition at 10 µM (SK-MEL-5): 37.8%; inhibition at 10 µM (SK-OV-3): 46.2%; inhibition at 10 µM (SNB-19): 66%; inhibition at 10 µM (SR): 93%; inhibition at 10 µM (SW-620): 74.4%; inhibition at 10 µM (T-47D): 55.1%; inhibition at 10 µM (TK-10): 50.5%; inhibition at 10 µM (U251): 63.5%; inhibition at 10 µM (UACC-257): 47.7%; inhibition at 10 µM (UACC-62): 44.2%
3 | Fc1ccccc1CNc1c2ccccc2nc2ccccc12 [Compound 8, Acridin-9-yl-(2-fluorobenzyl)-amine] | 54 | 89.1 | 15.1 | 84.9 | 38.1 | 38.3 | 52 | 70.3 | 76.7 | 85.8 | 57.8 | 46 | 55.3 | 43.6 | 48.8 | 68.9 | 52.9 | 87.7 | 51.2 | 48.2 | inhibition at 10 µM (SF-539): 68.9%; inhibition at 10 µM (SK-MEL-2): 21.8%; inhibition at 10 µM (SK-MEL-5): 39.3%; inhibition at 10 µM (SK-OV-3): 49.1%; inhibition at 10 µM (SNB-19): 56.1%; inhibition at 10 µM (SR): 82%; inhibition at 10 µM (SW-620): 71.5%; inhibition at 10 µM (T-47D): 55.2%; inhibition at 10 µM (TK-10): 41.8%; inhibition at 10 µM (U251): 53.1%; inhibition at 10 µM (UACC-257): 41.2%; inhibition at 10 µM (UACC-62): 38.4%
4 | Fc1cccc(CNc2c3ccccc3nc3ccccc23)c1 [Compound 9, Acridin-9-yl-(3-fluorobenzyl)-amine] | 53.7 | 113 | 22.9 | 82.7 | 58.3 | 68 | 70.1 | 77.1 | 85.7 | 84.3 | 51.4 | 61.2 | 49.5 | 49.4 | 56.2 | 64 | 51 | 89.9 | 67.2 | 74.8 | inhibition at 10 µM (SF-539): 73.1%; inhibition at 10 µM (SK-MEL-2): 18.6%; inhibition at 10 µM (SK-MEL-5): 39.5%; inhibition at 10 µM (SK-OV-3): 48.9%; inhibition at 10 µM (SNB-19): 64.1%; inhibition at 10 µM (SR): 80.9%; inhibition at 10 µM (SW-620): 78%; inhibition at 10 µM (T-47D): 57.3%; inhibition at 10 µM (TK-10): 35.9%; inhibition at 10 µM (U251): 64.8%; inhibition at 10 µM (UACC-257): 41.9%; inhibition at 10 µM (UACC-62): 49.7%
5 | Fc1ccc(CNc2c3ccccc3nc3ccccc23)cc1 [Compound 10, Acridin-9-yl-(4-fluorobenzyl)-amine] | 74 | 102 | 19.3 | 92.5 | 65.1 | 64.4 | 81.7 | 82.4 | 83.9 | 95.2 | 71.7 | 65.7 | 74.3 | 48.2 | 61.5 | 77.7 | 73.1 | 100 | 99.8 | 72.4 | inhibition at 10 µM (SF-539): 86.9%; inhibition at 10 µM (SK-MEL-2): 56.2%; inhibition at 10 µM (SK-MEL-5): 57.5%; inhibition at 10 µM (SK-OV-3): 60%; inhibition at 10 µM (SNB-19): 67.6%; inhibition at 10 µM (SR): 93.4%; inhibition at 10 µM (SW-620): 77.2%; inhibition at 10 µM (T-47D): 68.9%; inhibition at 10 µM (TK-10): 69.8%; inhibition at 10 µM (U251): 74.1%; inhibition at 10 µM (UACC-257): 64%; inhibition at 10 µM (UACC-62): 49.8%
